# From patent publication US20180055915A1, “COMPOSITIONS AND METHODS FOR TREATING PROSTATE CANCER” (UNIVERSITY OF ROCHESTER, priority 2016, published 2018)
# Residues, ends and D or L forms follow the SMILES beside them. *: point of attachment. Cbz = O=C(OCc1ccccc1)*
# How the values were obtained:
# [1] = system: wild type AR, ARv7, AR-F876L; settings: cited from earlier work
# Enz-S1-C4-2 cells = test: Enz sensitivity after 2 months treatment (MTT proliferation); assay type: cell-based
# Experimental: (§1) Cells were seeded in 24-well plates (5×10^3 cells/500 μL media per well) and cultured for 0, 2, 4 and 6 days. Cells were harvested and cell numbers and absorbance were calculated and recorded after using yellow tetrazolium MTT (3-(4, 5-dimethylthiazolyl-2)-2,5-diphenyltetrazolium bromide agent.
# EnzR1-C4-2 cells = test: MTT cell proliferation assay, EnzR1-C4-2; assay type: cell-based; settings: 20 uM Enz alone, FIG. 2A
# Experimental: as §1
# ARv7 mRNA = ARv7 mRNA expression (real-time PCR); assay type: cell-based; settings: Enz-S1-C4-2 cells, Enz treatment, FIG. 3D
# Experimental: Total RNAs were isolated using Trizol reagent (Invitrogen, Grand Island, N.Y.). 2 μg of total RNA was subjected to reverse transcription using Superscript III transcriptase (Invitrogen). Quantitative real-time PCR (qRT-PCR) was conducted using a Bio-Rad CFX96 system with SYBR green to determine the mRNA expression level of a gene of interest. Expression levels were normalized to the expression of GAPDH.
# [2] = CRPC patients; cited from earlier work
# ARv7 = biological target: T1, ARv7 (Homo sapiens, UniProt P10275); test: ARv7 protein expression/degradation in CRPC cells (western blot); assay type: cell-based; settings: MG132 with Cis 6 hrs, FIG. 4B
# T1 construct: endogenous in cells; host or cells: EnzR1 C4-2, EnzR3 C4-2B, EnzR2 CWR22Rv1
# T1 sequence (P10275 1-644 isoform P10275-3): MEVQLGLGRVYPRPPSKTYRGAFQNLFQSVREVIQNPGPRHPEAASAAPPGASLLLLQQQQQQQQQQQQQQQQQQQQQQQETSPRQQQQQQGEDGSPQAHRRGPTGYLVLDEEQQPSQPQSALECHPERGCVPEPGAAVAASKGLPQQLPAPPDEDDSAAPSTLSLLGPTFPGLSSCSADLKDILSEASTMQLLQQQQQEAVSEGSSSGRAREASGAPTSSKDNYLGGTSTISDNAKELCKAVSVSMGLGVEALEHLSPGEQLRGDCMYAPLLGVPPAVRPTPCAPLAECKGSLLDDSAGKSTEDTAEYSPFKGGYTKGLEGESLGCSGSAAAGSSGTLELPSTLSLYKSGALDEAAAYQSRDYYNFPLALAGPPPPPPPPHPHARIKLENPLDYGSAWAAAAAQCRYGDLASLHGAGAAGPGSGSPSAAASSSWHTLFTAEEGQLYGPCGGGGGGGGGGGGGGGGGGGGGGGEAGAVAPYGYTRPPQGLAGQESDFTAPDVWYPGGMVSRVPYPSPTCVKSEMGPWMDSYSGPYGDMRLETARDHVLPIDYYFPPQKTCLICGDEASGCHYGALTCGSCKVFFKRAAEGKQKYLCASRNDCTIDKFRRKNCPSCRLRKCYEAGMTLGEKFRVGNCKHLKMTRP
# Experimental: To further dissect the mechanism(s) why Cis can decrease ARv7 (and AR) protein expression, first assayed was the Cis effects on ARv7 (and AR) protein stability with protein biosynthesis inhibitor, cycloheximide (CHX) and proteasome inhibitor MG132 in EnzR2-CWR22Rv1 cells.
# For protein degradation, EnzR C4-2 cells were treated with 1 μg/mL Cisplatin for 6 hr. Cycloheximide or MG132 was added for another 4 hrs. For ubiquitination, human kidney epithelial HEK293T cells were grown in DMEM media with 10% FCS. Cells were plated at ˜60% confluency and pGFP-ubiquitin, pAR were transiently transfected into cells using CaCl2 reagent. After 48 hrs. of transfection, cells were treated with 1 μg/mL Cisplatin for 6 hrs. […], MG132, was added for another 4 hrs. Cell extracts were analyzed for AR degradation or AR-ubiquitination by using western blot.
# Cells were lysed in lysis buffer and proteins (50 μg) were separated on 10% SDS/PAGE gel and then transferred onto PVDF membranes (Millipore, Billerica, Mass.). After blocking membranes with 5% milk, they were incubated with appropriate dilutions of specific primary antibodies (anti-AR (N-20), anti-SF2, anti-GFP, anti-GAPDH, anti-a-tubulin). The blots were incubated with HRP-conjugated secondary antibodies and visualized using ECL system (Thermo Fisher Scientific, Rochester, N.Y.).
# PCa cell = settings: in vitro and in vivo; cited from earlier work
compound,measurement,setting,value
CC(O)(CS(=O)(=O)c1ccc(F)cc1)C(=O)Nc1ccc(C#N)c(C(F)(F)F)c1 (stereo not drawn) [Casodex],"degradation of wild type AR, ARv7 and AR mutants including AR-F876L",[1],not
COc1ccc(/C=C/C(=O)/C=C(O)/C=C/c2ccc(OC)c(OC)c2)cc1OC [ASC-J9®],"degradation of wild type AR, ARv7 and AR mutants including AR-F876L",[1],could degrade both wild type AR and the AR variant ARv7 or AR mutants including AR-F876L
"CNC(=O)c1ccc(N2C(=S)N(c3ccc(C#N)c(C(F)(F)F)c3)C(=O)C2(C)C)cc1F [Enz, 4-(3-(4-Cyano-3-(trifluoromethyl)phenyl)-5,5-dimethyl-4-oxo-2-thioxoimidazolidin-1-yl)-2-fluoro-N-methylbenzamide]",Enz sensitivity,"Enz-S1-C4-2 cells; Enz-S1-C4-2 cells before long-term treatment, FIG. 3A",54%
same,Enz sensitivity,"Enz-S1-C4-2 cells; after 10 uM Enz alone for 2 months, FIG. 3B",38%
same,suppression of cell growth,EnzR1-C4-2 cells,little effect
same,ARv7 mRNA expression,ARv7 mRNA,led to increase ARv7 mRNA expression
same,extension of overall survival (average),[2],4.8 months
CC(C)C[C@@H](C=O)NC(=O)[C@H](CC(C)C)NC(=O)[C@H](CC(C)C)NC(=O)OCc1ccccc1 [MG132] (Cbz-Leu-Leu-Leu-aldehyde),effect on Cis-induced ARv7 (and AR) degradation,ARv7,attenuate/inhibit the effect of Cis on ARv7 (and AR) degradation
O=C(Nc1ccc([N+](=O)[O-])cc1Cl)c1cc(Cl)ccc1O [niclosamide],PCa cell growth,PCa cell,suppress the PCa cell growth in vitro and in vivo
